A melting point compilation (Tetko et al.; mined from patent text by program, amines drawn as free bases though some values may be those of a salt)

Structure (SMILES) | melting point [°C]
CSC(N)=C(C#N)C#N | 228 to 229
c1ccc(Oc2ccc(C3(Cn4cncn4)OCCO3)cc2)cc1 | 100 to 102
CCCOc1ccc(S(=O)(=O)Nc2ccc3[nH]ncc3c2)cc1-c1nc2cc(N)c(N)cc2c(=O)[nH]1 | 261 to 263
O=C(Oc1cccc(C(F)(F)F)c1)c1cc2cc(CCl)ccc2oc1=O | 162 to 163
C=C=CN(C(=O)c1ccco1)c1c(C)cccc1C | 138 to 141
CC(=O)SCCc1noc(C(C)c2ccc(-c3ccccc3)c(F)c2)n1 (stereo not drawn) | 56 to 57
CON=C1CN(c2nc3c(cc2F)c(=O)c(C(=O)O)cn3C2CC2)CC12CN(C(=O)OC(C)(C)C)C2 | 278 to 279
COC(=O)c1ccc(N2CCCC2=O)cc1 | 118 to 120
COC(=O)c1ccccc1S(=O)(=O)NC(=O)n1nc(Cl)n(N(C)C)c1=O | 146
O=C(OCCN1CCN(c2ccc(Cl)cc2)CC1)c1sccc1Nc1ccnc2c(C(F)(F)F)cccc12 | 155
CC1(C(O)(Cc2ccc(F)cc2)Cn2cncn2)CC1(F)F (stereo not drawn) | 114
O=C(OCc1ccccc1)c1ccc(N2CCOCC2)cc1 | 85 to 86
C=CCN1CCC23CC(=O)CCC2C1Cc1cccc(OC)c13 (stereo not drawn) | 84 to 86
COc1cc(C(=O)O)ccc1-c1nc2cc3c(cc2[nH]1)NC(=O)C3(C)C | 315 to 319
CCCc1nn(CC)c(CO)c1Cc1ccc(-c2ccccc2NS(=O)(=O)C(F)(F)F)cc1 | 59 to 64
CS(=O)(=O)c1ccc(-c2cc3c(cc2-c2ccc(F)cc2)OCO3)cc1 | 173 to 174
O=C1c2ccccc2C2(c3ccc(Cl)cc3)NCCN12 (stereo not drawn) | 166 to 168
CC1(CNC(=O)C(F)(F)F)CN(c2cc3c(cc2F)c(=O)c(C(=O)O)cn3C2CC2)C1 | 265 to 272
CCn1c(=O)c2c(nc(/C=C/c3ccc(OC)c(OC)c3)n2C)n(CC)c1=O | 190 to 191
O=C(NC(=O)c1c(Cl)cccc1Cl)Nc1ccc(-c2ccccc2)cn1 | 221 to 231
O=C(c1cccs1)c1cnn2c(-c3cccc(-c4ccc(CN5CCOCC5)cc4)c3)ccnc12 | 175 to 178

Structure (SMILES) | melting point [°C]
Cc1nn(C)c(C)c1C(=O)Nc1cccc2c1CCC2(C)C | 152
CC1(C)CCC(C)(C)c2cc(Cn3cccn3)c(/C=C/c3ccc(C(=O)O)cc3)cc21 | 246 to 248
NC(=O)Cc1ccc2ccn(C3CCN(CCc4ccc(F)cc4F)CC3)c2c1 | 157 to 158
Cc1cccc(Nc2cc(Cl)nc(SCC(=O)NC3CCCCC3)n2)c1C | 156 to 158
CC(=O)N[C@@H](CSC(=O)C(C)C)C(=O)NCCSC(=O)C(C)C | 99 to 100
CC(=O)N(C)c1c(I)c(NC(=O)CS(=O)(=O)CC(=O)O)c(I)c(C(=O)O)c1I | > 300
CC(=O)c1ccccc1Nc1nc(Nc2ccc3c(c2)CCCC(=O)N3C)ncc1Cl | 215 to 217
CCCc1nc(C)n2nc(S(=O)(=O)Cl)nc2c1Cc1ccc(-c2ccccc2C#N)cc1 | 141
CC[C@@H](O)CC(=O)N[C@H]1CC[C@H](CCN2CCC(c3cccc4c3CCO4)CC2)CC1 | 201
COc1cccc2c(=O)c3c(O)cc(OCC4CS4)cc3oc12 (stereo not drawn) | 187
CC(C)(C)c1cc(CN(c2cccnc2)S(=O)(=O)c2ccccc2Br)cc(C(C)(C)C)c1O | 105 to 107
NS(=O)(=O)c1ccc(-n2nc(C(F)(F)F)cc2-c2ccc(-c3cocn3)cc2)cc1 | 170 to 172
Clc1ccc2nc(-c3cccs3)c(I)n2n1 | 205 to 209
COC(=O)c1sccc1NC(=O)c1ccccc1SSc1ccccc1C(=O)Nc1ccsc1C(=O)OC | 250 to 252
Cc1nc(-c2cc(C(=O)O)c(=O)[nH]c2C)cs1 | 297 to 299
COC(=O)C(CC(C)C)NC(=O)c1ccc(NCc2ncc[nH]2)cc1-c1ccccc1 (stereo not drawn) | 156 to 160
CCCCc1nc(Cl)c(CO)n1Cc1ccc(-c2ccccc2-c2nc(=O)o[nH]2)cc1 | 202 to 205
CCN(CC)c1ccc(C=CC2=NC(C#N)=C(C#N)N=CC2)cc1 | > 300
Cc1cc(C)n(Cc2ccc(Cl)cc2Cl)c1/C=C/C(=O)O | 193 to 194
CC(C)(C)OC(=O)C1CCNC1=S (stereo not drawn) | 110 to 111
NCC1Cc2cc(-c3ccc(F)cc3)cc(F)c2O1 (stereo not drawn) | > 250

Structure (SMILES) | melting point [°C]
COc1cc(CSc2ccc(O)cc2)cc(OC)c1O | 128
CCCOc1cc(C(=O)O)cc(N)c1-c1ccccc1 | 101 to 102
COc1cccc2c(Oc3ccccc3)cccc12 | 65 to 66
CC(C)Nc1nc2c(F)c(F)c(Cl)cc2[nH]1 | 175 to 178
Cc1noc2nc(-c3ccccc3)cc(Cl)c12 | 130 to 131
CC(=O)OCC(=O)C1(O)C(C)CC2C3CCC4=CC(=O)CCC4(C)C3C(=O)CC21C (stereo not drawn) | 214 to 219
COC(=O)c1ccc(NS(C)(=O)=O)c(C=O)c1 | 161 to 163
CC1(OCc2ccccc2F)COC(c2ccco2)OC1 (stereo not drawn) | 67.5 to 69
O=S1CC2CC(CN(Cc3ccccc3)C2)C1 (stereo not drawn) | 137 to 138
CCCCCCC(C(=O)O)n1cc(CC)c2cc(-c3ccccc3-c3nn[nH]n3)ccc21 (stereo not drawn) | 110 to 113
CSc1c(O[C@H]2CC[C@H](NCc3ccccc3)CC2)ccc2[nH]ncc12 | 136
O=S(=O)(c1ccc(Cl)cc1)C(c1ccncc1)C1CCOCC1 (stereo not drawn) | 208 to 209
CCCCCCCCOc1cc2cc(C(=O)OC)c(C(=O)OC)c(-c3ccnc(Cl)c3)c2cc1OC | 93 to 97
O=C(C#CCN1C(=O)c2ccccc2C1=O)Nc1nnc(SCc2ccccc2)s1 | 128 to 131
CNC(=O)c1cc2ccc(OC)cc2n1CCNC(C)=O | 177 to 178
CC(C)N(CCC(c1ccccc1)c1cc(Br)ccc1OCc1ccccc1)C(C)C (stereo not drawn) | 52 to 56
O=Cc1cc([N+](=O)[O-])ccc1C1SCCCS1 | 99 to 101
CNC(=O)[C@@H]1CCCN1S(=O)(=O)c1ccc(Cl)c(COc2cccc3c2NC(C)(C)C=C3n2cncn2)c1Cl | 131
O=c1c(F)cn(C2CCCO2)c(=O)n1C1CCCO1 (stereo not drawn) | 105 to 108

More lines, now with the values ahead:

melting point [°C] | Structure (SMILES)
135 to 139 | CC1(C)CC(N2C(=O)C=CC2=O)CC(C)(C)N1OC1CCCCC1
146 to 148 | Cc1nc2ccc(S(=O)(=O)n3c(COC(C)C(=O)O)cc4cc(C(F)(F)F)ccc43)cc2s1 (stereo not drawn)
182 to 184 | C=Cc1cc(OC)cc2cc(-c3ccc(OC)cc3)oc12
187 | COC(C=CC=Cc1ccc(OC)cc1)=CC(=O)O
< 20 | COC(=O)C(C)(C)Oc1ccc(-c2ccc(CCNC(=O)c3cc(Cl)ccc3OC)cc2)cc1
188 to 194 | CN1CCN(CC/C=C/c2cc3ncc(C#N)c(Nc4ccc(Sc5nccn5C)c(Cl)c4)c3cc2F)CC1
111 to 112 | O=C1C(c2ccccc2)=C(c2ccccc2)C(=O)N1CCc1ccccc1F
223 to 224 | NC(CC(=O)O)c1ccc2c(c1)OCO2 (stereo not drawn)
97 to 98 | COC(=O)/C=C/c1c(O)cccc1OCCCCC(=O)OC
> 245 | COc1cccc(OC)c1Cc1c(O)ncnc1O
270 to 271 | O=C(O)C1=Cc2cc(C(=O)c3ccccc3)ccc2OC1C(F)(F)F (stereo not drawn)
113 to 114 | CSc1ccc(C2=C(c3cccs3)C(=O)C(C)(C)O2)cc1
170 | C#CCOC(=O)C1=C(N)NC(N)=C(C(=O)OCC#C)C1c1cccc([N+](=O)[O-])c1
124 to 126 | O=c1c2ccccc2[nH]c2c(OCCCCN(CCO)CCO)cccc12
119 to 120 | CC(=O)N1CCc2cc(CC(C)Br)cc([N+](=O)[O-])c21 (stereo not drawn)
70 to 72 | Fc1ccc(F)c(C(Sc2ccc(Cl)cc2)c2ccncc2Cl)c1 (stereo not drawn)
117 to 119 | CC(=O)OCc1ccc(-c2ccccc2-c2nnnn2C(c2ccccc2)(c2ccccc2)c2ccccc2)cc1
126 to 129 | O=C1c2ccccc2C(=O)N1CCCC=NNc1ccc(S(=O)(=O)Nc2ccccc2)cc1
112 to 113 | COc1ccc(C(=O)CCCCCN2CCC(CNC(=O)c3cc(Cl)c(N)cc3OC)CC2)cc1F

melting point [°C] | Structure (SMILES)
96 to 101 | CCCCSc1ccccc1C(=O)O
56 to 57 | CCOC(=O)Cc1ccc2c(c1)CC(CC(=O)O)C2 (stereo not drawn)
107 to 108 | Cc1nc(N2CCN(Cc3ccc(C(F)(F)F)cc3)C2=O)sc1Br
68 to 71 | C=CCOC(=O)c1cccc(NC(=O)NCNC(=O)c2ccccc2C(=O)c2ccccc2)c1
192 to 193 | O=C(O)[C@H](Cc1ccccc1)NS(=O)(=O)c1ccc(N2CCN(c3ccccc3)CC2)cc1
102 | CCN1C(=O)C(C)N(c2ccc(Oc3ccccc3)cc2)C1=S (stereo not drawn)
118 to 119 | CCNC(=Nc1ccccc1N1CCOCC1)NC
> 300 | O=[N+]([O-])c1cc2nc(O)c(O)nc2c2[nH]ncc12
94 to 95 | CN(C)Cc1ccc([C@H]2CC[C@H](OC(=O)c3ccc(Cl)cc3)CC2)cc1
286 to 288 | CC1(C)CCC(C)(C)c2nc3c(ccc4c(-c5ccc(C(=O)O)cc5)cn(Cc5cccnc5)c43)nc21
118 to 120 | Cc1cc(C(=S)CBr)ccc1O
196 to 198 | N#Cc1c(N2CCc3ccccc3CC2)nc(=O)[nH]c1OCC(F)(F)F
238 | O=C(O)c1c(Cc2cc3c(cc2Cl)OCO3)c(-c2ccccn2)nn1CC1CCCCC1
154 to 155 | COc1ccn2nc(-c3ccccc3)c(-c3ccc(=O)n(C4CCN(C)CC4)n3)c2c1
118 to 119 | CC(=O)OCCn1ccc(=O)c(OCc2ccccc2)c1C(OC(C)=O)c1ccc(F)cc1 (stereo not drawn)
84.5 | COc1cc(-c2nc3ccccc3n2Cc2ccc(C)cc2)cc(OC)c1OC
84 to 85 | CCc1c(OC)cc(C2CN(C)CCC2=O)cc1OC (stereo not drawn)
230 to 233 | O=[N+]([O-])c1ccnc(Nc2nccs2)c1
